From patent publication US4507318A, “1-Aryl 2-aminomethyl cyclopropane carboxylates (Z) as drugs in the treatment of pain” (Pierre Fabre S.A., priority 1981, dated 1985)
Structures can show the parent of a compound that is named as a salt.

How the values were obtained:
[1] = Solubility in water; type: physicochemical
[2] = Solubility in DMA; type: physicochemical

Solubility in water (in words) [1]: insoluble in water
Solubility in DMA [2]: 2%
SMILES: CCOC(=O)[C@]1(c2ccccc2)C[C@@H]1CN(Cc1ccccc1)Cc1ccccc1 (relative stereo) [Example 11, Hydrochloride of 1-phenyl-1-ethoxycarbonyl 2-dibenzyl amino-methyl cyclopropane (Z)]
